Measured values from patent publication US7183112B2, “Uses for anti-malarial therapeutic agents” (APT Pharmaceuticals, LLC, priority 1999, dated 2007).
Several values for one entry are separate records, joined by “and”; a condition that tells them apart may be missing. Equal entries are not always repeated. Marks after values point to notes of the source that are not given here.

How the values were obtained:
Ascaris-sensitized sheep [1] = experiment: Airway responsiveness to inhaled carbachol (PC400), Examples 1-2; assay type: in vivo; conditions: for ORC #2 (24 P-Ag.) (carbachol reactivity, PC 400) / ORC #1 BSLN. (carbachol reactivity, PC 400): Example 2, aerosol 40 mg b.i.d. (2 mg/kg/day); for ORC #2 (24 P-Ag.) (carbachol reactivity, PC 400): 24 hour post-antigen challenge; for ORC #1 BSLN. (carbachol reactivity, PC 400): baseline
Description: Dose Response Curves to Inhaled Carbachol: For the carbachol dose response curves, measurements of SRL were repeated immediately after inhalation of buffer and after each administration of 10 breaths of increasing concentrations of carbachol solution (0.25%, 0.5%, 1.0%, 2.0% and 4.0% w/v). To assess airway responsiveness, the cumulative carbachol dose in breath units (BU) that increased SRL 400% over the post-buffer value (i.e. PC400) was calculated from the dose response curve. One breath unit was defined as one breath of a 1% w/v carbachol solution.
At 3 to 4 days before treatment was begun, baseline airway responsiveness, to aerosol carbachol (i.e., PC400) was determined and a baseline bronchial biopsy performed. […] The animals were treated two times a day for 3 days and then, on the fourth day, at 0.5 hours before antigen challenge and again at 4 hours after challenge. On the antigen-challenge day, SRL was measured and the animals were than treated with HCQ designated compound. SRL was remeasured 0.5 h after treatment (just before challenge) and the animals were then challenged with antigen. SRL was then remeasured immediately after.
On the fourth day, they received an additional treatment one-half hour prior to antigen challenge.

Ascaris-sensitized sheep [2] = experiment: Antigen-induced specific lung resistance (baseline, peak EAR, peak LAR), Example 3; assay type: in vivo; conditions: for EAR (peak, largest specific lung resistance 0–4 h) / LAR (peak, largest specific lung resistance 5–8 h): mean ± SE, n = 3 sheep
Description: All procedures were approved by the Mount Sinai Medical Center Animal Research Committee, which is responsible for assuring the humane care and use of experimental animals. […] During the chronic treatment trail, venous blood samples were obtained from the external jugular vein for the determination of plasma compound concentrations. Samples were obtained as baseline (pre-dosing), and, then, before dosing on days 8, 15, 22, 29 and after dosing had stopped on day 43. Measurement of Airway Mechanics: The unsedated sheep were restrained in a cart in the prone position with their heads immobilized. After topical anesthesia of the nasal passages with 2%-lidocaine solution, a balloon catheter was advanced through one nostril into the lower esophagus. The animals were […] with a cuffed endotracheal tube through the other nostril using a flexible fiberoptic bronchoscope as a guide. (The cuff of the endotracheal tube was inflated only for the measurement of airway mechanics and during aerosol challenges to prevent undue discomfort. This procedure has no-effect on airway mechanics). Pleural pressure was estimated with the esophageal balloon catheter (filled with one ml of air) which was positioned 5–10 cm from the gastroesophageal junction. In this position, the end expiratory pleural pressure ranged between -2 and -5 cm H2O. Once the balloon was placed, it was secured so that it remained in position for the duration of the experiment. Lateral pressure in the trachea was measured with a sidehole catheter (inner dimension, 2.5 mm) advanced through and positioned distal to the tip of the endotracheal tube. Transpulmonary pressure, the difference between tracheal and pleural pressure, was measured with a differential pressure transducer catheter system. For the measurement of pulmonary resistance (RL), the proximal end of the endotracheal tube was connected to a pneumotachograph. The signals of flow and transpulmonary pressure were recorded on a n oscilloscope recorder which was linked to a computer for on-line calculation of RL from transpulmonary pressure, respiratory volume (obtained by digital integration) and flow. Analysis of 5–10 breaths were used for the determination of RL. Immediately after the measurements of RL, thoracic gas volume (Vtg) was measured in a constant volume body plethysmograph to obtain specific lung resistance (SRL=RL·Vtg) in cm H2O·sec^−1. Aerosol Delivery Systems: Aerosols of Ascaris suum extract (diluted 20:1 with phosphate buffered saline; 82,000 PNU/ml) were generated using a disposable medical nebulizer (Raindrop^R, Puritan Bennett), which produces an aerosol with a mass median aerodynamic diameter of 3.2 μm (geometric standard deviation, 1.9) as determined by a 7 stage Andersen cascade impactor. The output from the nebulizer was directed into a plastic T-piece, one end of which was connected to the inspiratory port of a Harvard respirator. To better control aerosol delivery, a dosimeter consisting of a solenoid valve and a source of compressed air (20 psi) was activated at the beginning of the inspiratory cycle of the Harvard respirator system for 1 second. The aerosol was delivered at a tidal volume of 500 ml and a rate of 20 breaths per minute for 20 minutes. Each sheep was challenged with an equivalent dose of antigen (400 breaths) in the control and drug trials. Carbachol aerosols were also generated with this same nebulizer system. The same basic protocol was used for all studies in Example 3. This basic protocol consisted of first obtaining baseline dose response curves to aerosol carbachol 1–3 days prior to antigen challenge. Then, on the day of antigen challenge, values of specific lung resistance (SRL) were measured at baseline and, then, 30 min after drug or vehicle (0.9% saline) treatment. The animals were, then, challenged with Ascaris suum antigen and SRL was remeasured immediately after challenge, hourly from 1–6 h after challenge and on the half-hour from 6 ½–8 h after challenge. […]

[3] = No Treatment 14d after stopping aerosol 2 mg/kg/d x 28 d
[4] = No Treatment 28d after stopping aerosol 2 mg/kg/d x 28 d
[5] = aerosol 0.2 mg/kg once a day x 4 d
[6] = aerosol 0.6 mg/kg once a day x 4 d
[7] = aerosol 1 mg/kg twice a day for 4 days
[8] = aerosol 1 mg/kg twice a day x 4 d
[9] = aerosol 2 mg/kg once a day for 4 days
[10] = aerosol 2 mg/kg once a day x 4 d
[11] = aerosol 2 mg/kg once a day x 14 d
[12] = aerosol 2 mg/kg once a day x 28 d
[13] = chronic treatment, aerosol 2 mg/kg once a day for up to 4 weeks
[14] = dose response, aerosol 0.2, 0.6 and 2 mg/kg once a day for 4 days
[15] = p.o. 1 mg/kg twice a day for 4 days

Question: How did the “ORC #2 (24 P-Ag.) (carbachol reactivity, PC 400)” value (Ascaris-sensitized sheep [1]; Mean of 2 sheep) turn out when `CCN(CCO)CCCC(C)Nc1ccnc2cc(Cl)ccc12` (centres unmarked) [HCQ, hydroxychloroquine] was run?
Answer: 15.82 breath units

Question: What about the “ORC #2 (24 P-Ag.) (carbachol reactivity, PC 400)” value (Ascaris-sensitized sheep [1]; individual sheep) of the same compound?
Answer: 15.86 breath units and 15.77 breath units

Question: And the “ORC #1 BSLN. (carbachol reactivity, PC 400)” value (Ascaris-sensitized sheep [1]; Mean of 2 sheep)?
Answer: 12.74 breath units

Question: What about the “ORC #1 BSLN. (carbachol reactivity, PC 400)” value (Ascaris-sensitized sheep [1]; individual sheep) of the same compound?
Answer: 10.65 breath units and 14.83 breath units

Question: What about the “effect on bronchial hyperresponsiveness” value (Ascaris-sensitized sheep [1]; inhaled (nebulized), twenty-four hours later, summary of animal studies) of the same compound?
Answer: continued effect at blocking

Question: And the “effect on LAR and AHR after stopping treatment” value (Ascaris-sensitized sheep [2]; 2 weeks after stopping 4 weeks aerosol 2 mg/kg once a day)?
Answer: carryover effect

Question: And the “response to allergen after stopping treatment” value (Ascaris-sensitized sheep [2]; 2 weeks after stopping aerosol 1 mg/kg twice a day for 4 days)?
Answer: responded normally

Question: What about the “response to allergen after stopping treatment” value (Ascaris-sensitized sheep [2]; 2 weeks after stopping aerosol 2 mg/kg once a day for 4 days) of the same compound?
Answer: responded normally

Question: And the “animals' responses after stopping treatment” value (Ascaris-sensitized sheep [2]; 4 weeks after stopping 4 weeks aerosol 2 mg/kg once a day)?
Answer: returned to normal

Question: What about the “EAR (peak, largest specific lung resistance 0–4 h)” value (Ascaris-sensitized sheep [2]; [3]) of the same compound?
Answer: 4.17 ± 1.70 cmH2O.sec^−1

Question: And the “LAR (peak, largest specific lung resistance 5–8 h)” value (Ascaris-sensitized sheep [2]; [3])?
Answer: 1.69 ± 0.21 cmH2O.sec^−1

Question: And the “EAR (peak, largest specific lung resistance 0–4 h)” value (Ascaris-sensitized sheep [2]; [4])?
Answer: 4.35 ± 0.74 cmH2O.sec^−1

Question: What about the “LAR (peak, largest specific lung resistance 5–8 h)” value (Ascaris-sensitized sheep [2]; [4]) of the same compound?
Answer: 2.69 ± 0.26^h cmH2O.sec^−1

Question: What about the “EAR (peak, largest specific lung resistance 0–4 h)” value (Ascaris-sensitized sheep [2]; [5]) of the same compound?
Answer: 3.95 ± 0.47 cmH2O.sec^−1

Question: What about the “LAR (peak, largest specific lung resistance 5–8 h)” value (Ascaris-sensitized sheep [2]; [5]) of the same compound?
Answer: 2.22 ± 0.17^h cmH2O.sec^−1

Question: What about the overall protective effect (Ascaris-sensitized sheep [2]; aerosol 0.6 mg/kg once a day for 4 days) of the same compound?
Answer: significant protective effects

Question: And the “EAR (peak, largest specific lung resistance 0–4 h)” value (Ascaris-sensitized sheep [2]; [6])?
Answer: 3.19 ± 0.51 cmH2O.sec^−1

Question: What about the “LAR (peak, largest specific lung resistance 5–8 h)” value (Ascaris-sensitized sheep [2]; [6]) of the same compound?
Answer: 1.30 ± 0.18^f cmH2O.sec^−1

Question: What about the “effect on early airway response (EAR)” value (Ascaris-sensitized sheep [2]; [7]) of the same compound?
Answer: no effect

Question: And the “effect on late airway response (LAR)” value (Ascaris-sensitized sheep [2]; [7])?
Answer: blocked

Question: What about the “EAR (peak, largest specific lung resistance 0–4 h)” value (Ascaris-sensitized sheep [2]; [8]) of the same compound?
Answer: 5.57 ± 1.82 cmH2O.sec^−1

Question: What about the “LAR (peak, largest specific lung resistance 5–8 h)” value (Ascaris-sensitized sheep [2]; [8]) of the same compound?
Answer: 1.35 ± 0.15^d,e cmH2O.sec^−1

Question: And the “effect on EAR” value (Ascaris-sensitized sheep [2]; [9])?
Answer: no effect

Question: What about the “effect on LAR” value (Ascaris-sensitized sheep [2]; [9]) of the same compound?
Answer: blocked

Question: What about the “EAR (peak, largest specific lung resistance 0–4 h)” value (Ascaris-sensitized sheep [2]; [10]) of the same compound?
Answer: 3.5 ± 0.73 cmH2O.sec^−1 and 3.53 ± 0.73 cmH2O.sec^−1

Question: What about the “LAR (peak, largest specific lung resistance 5–8 h)” value (Ascaris-sensitized sheep [2]; [10]) of the same compound?
Answer: 1.34 ± 0.32^d,e cmH2O.sec^−1 and 1.34 ± 0.03^d cmH2O.sec^−1

Question: What about the “EAR (peak, largest specific lung resistance 0–4 h)” value (Ascaris-sensitized sheep [2]; [11]) of the same compound?
Answer: 4.21 ± 1.68 cmH2O.sec^−1

Question: What about the “LAR (peak, largest specific lung resistance 5–8 h)” value (Ascaris-sensitized sheep [2]; [11]) of the same compound?
Answer: 0.78 ± 0.39^f cmH2O.sec^−1

Question: And the “EAR (peak, largest specific lung resistance 0–4 h)” value (Ascaris-sensitized sheep [2]; [12])?
Answer: 4.21 ± 1.16 cmH2O.sec^−1

Question: What about the “LAR (peak, largest specific lung resistance 5–8 h)” value (Ascaris-sensitized sheep [2]; [12]) of the same compound?
Answer: 1.22 ± 0.08^d cmH2O.sec^−1

Question: What about the “effect on EAR” value (Ascaris-sensitized sheep [2]; [13]) of the same compound?
Answer: no effect

Question: What about the “effect on LAR” value (Ascaris-sensitized sheep [2]; [13]) of the same compound?
Answer: block

Question: And the “effect on EAR” value (Ascaris-sensitized sheep [2]; [14])?
Answer: no effect

Question: And the “effect on LAR” value (Ascaris-sensitized sheep [2]; [14])?
Answer: blocked

Question: And the “effect on antigen-induced EAR” value (Ascaris-sensitized sheep [2]; [15])?
Answer: did not protect

Question: What about the “effect on antigen-induced LAR” value (Ascaris-sensitized sheep [2]; [15]) of the same compound?
Answer: did not protect

Question: And the “EAR (peak, largest specific lung resistance 0–4 h)” value (Ascaris-sensitized sheep [2]; p.o. 1 mg/kg twice a day x 4 d)?
Answer: 4.64 ± 0.55 cmH2O.sec^−1

Question: And the “LAR (peak, largest specific lung resistance 5–8 h)” value (Ascaris-sensitized sheep [2]; p.o. 1 mg/kg twice a day x 4 d)?
Answer: 2.27 ± 0.10 cmH2O.sec^−1
